Measured values published in patent US6500431B1, “Inhibitors of angiogenesis and tumor growth” (University of Southern California, priority 1998, dated 2002).
No end group written: not given here.

What was measured:
Type in all cases: cell-based
[1] = test system: endothelial cells; assay: Endothelial cell migration assay, fibronectin-coated transwell; details: chemotaxis induced by VEGF or bFGF
Method: (§1) The assays were done in double chamber wells separated by […] membrane. Chemotaxis was induced by bFGF (25 ng/mL) in the lower chamber. Endothelial cells or KS cells (5×10^4/mL) were placed in the upper chamber in the presence and absence of test polypeptides. Taxol at 10 ng/mL was used as a known inhibitor of migration. Cell migration across the membrane was quantitated after an overnight incubation.
Angiogenesis is mediated by complex biochemical processes including degradation of the basement membrane under existing blood vessel endothelial cells, followed by proliferation and migration of endothelial cells, followed by formation of capillary loops, and recruitment of vascular smooth muscle cells to encase the newly formed vessels and provide stability. […]
Briefly, wells were coated with fibronectin (25 μg/mL) overnight, and endothelial cells or KS cells were plated in the upper chamber with 100 μL of DMEM/0.4% FCS. […] The plates were incubated for 5 hr at 37° C. and the cells crossing the fibronectin-coated membrane were counted after wiping the cells off the membrane in the upper chamber with a cotton swab.
The cells that traversed the membrane were fixed with Diff-Quik stain according to the manufacturer's instruction (Dade Diagnostics Inc., Aguada, PR). The cells were counted under a microscope at 320× in four randomly selected fields. […]

[2] = test system: T1 cells; assay: Fibroblast proliferation assay (MTT); details: 5000 T1 cells/well, 7 days
Method: To determine if Saposin B polypeptides had anti-angiogenic activity, a series of overlapping polypeptides were synthesized and tested in the KS Y-1 cell proliferation assay. The overlapping polypeptides are SEQ ID NOS:13 though 42. Cell Proliferation assays in either KS cells or fibroblast. Cells were plated in 48 well plates at equal numbers in appropriate culture medium. Cells were treated with the test compounds at various concentrations on day one, and on day 3. […] KS cells were used to represent the activated endothelial cells, while fibroblast cells represent the control cells. The results are remarkable for the lack of toxicity to the fibroblast relative to the activated endothelial cells/KS cells.

[3] = test system: KS Y-1 cells; assay: KS cell migration assay, fibronectin-coated transwell; details: 50,000 KS Y-1 cells/well, 25 ng/mL bFGF, overnight
Method: as §1
Angiogenesis is mediated by complex biochemical processes including degradation of the basement membrane under existing blood vessel endothelial cells, followed by proliferation and migration of endothelial cells, followed by formation of capillary loops, and recruitment of vascular smooth muscle cells to encase the newly formed vessels and provide stability. KS and endothelial cell migration in the presence of Saposin B was studied in transwell culture plates with 8 μm pore membranes (Costar, Cambridge, Mass.).
Briefly, wells were coated with fibronectin (25 μg/mL) overnight, and endothelial cells or KS cells were plated in the upper chamber with 100 μL of DMEM/0.4% FCS. 500 μL of DMEM/0.4% FCS was added to the lower chamber and incubated at 37° C. for one hour. The test polypeptides, at various concentrations, were added to the upper chamber, and chemotactic agents (VEGF or bFGF at 20 ng/mL) were added to the lower cell-culture chambers. The plates were incubated for 5 hr at 37° C. and the cells crossing the fibronectin-coated membrane were counted after wiping the cells off the membrane in the upper chamber with a cotton swab.
The cells that traversed the membrane were fixed with Diff-Quik stain according to the manufacturer's instruction (Dade Diagnostics Inc., Aguada, PR). The cells were counted under a microscope at 320× in four randomly selected fields. The experiments were done in duplicate and repeated at least three times.

[4] = test system: KS Y-1 cells; assay: KS Y-1 cell proliferation assay (MTT); details: concentration not printed, 5 days, MTT
Method: To determine if Saposin B polypeptides had anti-angiogenic activity, a series of overlapping polypeptides were synthesized and tested in the KS Y-1 cell proliferation assay. The overlapping polypeptides are SEQ ID NOS:13 though 42. Cell Proliferation assays in either KS cells or fibroblast. Cells were plated in 48 well plates at equal numbers in appropriate culture medium. Cells were treated with the test compounds at various concentrations on day one, and on day 3. MTT was done on day 5. KS cells were used to represent the activated endothelial cells, while fibroblast cells represent the control cells. The results are remarkable for the lack of toxicity to the fibroblast relative to the activated endothelial cells/KS cells.

[5] = Activity of truncated recombinant Saposin B (FIG. 1C); details: cell type not given
Excerpt: FIG. 1C: Activity of truncated recombinant Saposin B. Saposin (Sap) B 1-69 (consisting of the first 69 amino acids), Sap B 1-42 (consisting of the first 42 amino acids), Sap B 11-81 (consisting of 11-81 amino acids and thus lacking the first 10 amino acids).

Compound: CC(=O)O[C@H]1C(=O)[C@@]2(C)[C@H]([C@H](OC(=O)c3ccccc3)[C@]3(O)C[C@H](OC(=O)[C@H](O)[C@@H](NC(=O)c4ccccc4)c4ccccc4)C(C)=C1C3(C)C)[C@]1(OC(C)=O)CO[C@@H]1C[C@@H]2O [paclitaxel, reference compound]
- inhibition of endothelial cell migration [1]: did not completely inhibit

Compound: GDVCQDCIQMV [SEQ ID NO:19]
- Fibroblast Proliferation, % of Control ([2]; 1 μg/mL): 91.3 % of Control
- Fibroblast Proliferation, % of Control ([2]; 10 μg/mL): 91.3 % of Control
- Fibroblast Proliferation, % of Control ([2]; 50 μg/mL): 82.6 % of Control
- % Cells Migrating Through Membrane (of Control) ([3]; 1 μg/mL): 78.23 % (of Control)
- % Cells Migrating Through Membrane (of Control) ([3]; 50 μg/mL): 20.98 % (of Control)
- % Cells Migrating Through Membrane (of Control) [3]: 40.32 % (of Control)
- Cell Proliferation Activity (% of control), KSY-1 ([4]; first of two KSY-1 value columns): 28 % of control
- Cell Proliferation Activity (% of control), KSY-1 ([4]; second of two KSY-1 value columns): 8 % of control

Compound: Sap B 1-42: truncated recombinant Saposin B consisting of the first 42 amino acids (GDVCQDCIQMVTDIQTAVRTNSTFVQALVEHVKEECDRLGPG; ends and bridges not checked; cysteine pairing not given here; UniProt P07602 195-236, looked up, fragment)
- growth inhibition by truncated recombinant Saposin B [5]: dose dependent growth inhibition
